The term bioavailability denotes dose-corrected exposure relative to a reference, in per cent. Read a low bioavailability as little systemic uptake. For orientation: Cmax means the peak of the concentration-time curve. The term AUC(0-t) denotes exposure summed from dosing to a finite time, without extrapolation to infinity. Low readings indicate less exposure, high ones more exposure.

Holding throughout (type): ADME, organism-based
Data set [1] is described as follows: Oral bioavailability in Sprague-Dawley rat at 5 mg/kg. To be noted: in vivo.
Data set [2] relates to Plasma. The experiment in a line: Fraction unbound in C57BL6 mouse plasma at 25 mg/kg, po after 4 hrs. More on the design: dose 25 mg/kg, route oral. The note with it: in vivo.
For data set [3], the system named is Plasma. The experiment in a line: Fraction unbound in C57BL6 mouse plasma at 25 mg/kg, po after 8 hrs. More on the design: dose 25 mg/kg, route oral. The note with it: in vivo.
A short description of data set [4]: Cmax in Sprague-Dawley rat at 5 mg/kg, po. To be noted: in vivo. More on the design: dose 5 mg/kg, route oral.
Data set [5] is described as follows: Cmax in C57BL6 mouse at 5 mg/kg, po. More on the design: dose 5 mg/kg, route oral. To be noted: in vivo.
Data set [6] has as its system Plasma. The experiment in a line: Fraction unbound in C57BL6 mouse plasma at 25 mg/kg, po. More on the design: dose 25 mg/kg, route oral. To be noted: in vivo.
In data set [7] the test system is Plasma. The data set can be described thus: Fraction unbound in C57BL6 mouse plasma at 35 mg/kg, po. More on the design: dose 35 mg/kg, route oral. The note with it: in vivo.
In data set [8] the test system is Plasma. The data set can be described thus: Fraction unbound in C57BL6 mouse plasma at 25 mg/kg, po after 12 hrs. More on the design: dose 25 mg/kg, route oral. To be noted: in vivo.
A short description of data set [9]: Oral bioavailability in C57BL6 mouse at 5 mg/kg. To be noted: in vivo.
Data set [10] relates to Plasma. The experiment in a line: Fraction unbound in C57BL6 mouse plasma at 100 mg/kg, po. More on the design: dose 100 mg/kg, route oral. To be noted: in vivo.
Data set [11] in a line: Volume of distribution at steady state in C57BL6 mouse at 2 mg/kg, iv. More on the design: dose 2 mg/kg, route intravenous. To be noted: in vivo, read-out: Vdss.
Data set [12] deals with Plasma. The experiment in a line: Fraction unbound in C57BL6 mouse plasma at 25 mg/kg, po after 1 hr. More on the design: dose 25 mg/kg, route oral. To be noted: in vivo.
Data set [13] in a line: Volume of distribution at steady state in Sprague-Dawley rat at 2 mg/kg, iv. More on the design: dose 2 mg/kg, route intravenous. To be noted: in vivo, read-out: Vdss.
Data set [14] has as its system Plasma. The experiment in a line: Fraction unbound in C57BL6 mouse plasma at 50 mg/kg, po. More on the design: dose 50 mg/kg, route oral. To be noted: in vivo.
The test system of data set [15] is Plasma. The experiment in a line: Fraction unbound in C57BL6 mouse plasma at 15 mg/kg, po. More on the design: dose 15 mg/kg, route oral. To be noted: in vivo.
Data set [16] in a line: AUC (0 to 24 hrs) in Sprague-Dawley rat at 5 mg/kg, po. More on the design: time < 24 hr, dose 5 mg/kg, route oral. To be noted: plasma.

Take `CCOc1ccc(N2CCN(c3noc(C4(NC(C)=O)CCC4)n3)[C@@H](C)C2)c(C)c1`: the bioavailability was found to be 34% in data set [1] and 46% in data set [9]. Besides, the “Cp(f)” value in [2] is given as 1142 nM; in data set [3] it was 882 nM; in [6], 708 nM; in data set [7], 618 nM; in data set [8], 498 nM; in [10], 1482 nM. The “Cp(f)” value in data set [12] stood at 1165 nM; in data set [14], 988 nM; in data set [15], 95 nM. In addition, the Cmax in data set [4] was determined as 1200 nM; in data set [5] it was 5800 nM. Moreover, the figures for the Vd in [11] and in data set [13] were 0.98 L/kg and 1.8 L/kg, respectively.

Regarding `CCOc1ccc(N2CCN(c3noc(CC)n3)[C@@H](C)C2)c(C)c1`, in data set [1], the bioavailability is 17%. The molecule further returned a Cmax in data set [4] of 380 nM. Moreover, the AUC(0-t) at 24 h in data set [16] worked out at 291 ng·h/mL. Besides, the Vd in data set [13] amounted to 12.8 L/kg.

For the origin of these results see ChEMBL document CHEMBL3108682, “Piperazine oxadiazole inhibitors of acetyl-CoA carboxylase” (J Med Chem, 2013).
